Experimental data from patent US6432921B1, “Thrombin inhibitors” (Akzo Nobel N.V., priority 1995, dated 2002).

Molecular target: T1, Human thrombin (Homo sapiens, UniProt P00734)
T1 construct: purchased Centraal Laboratorium voor Bloedtransfusie, Amsterdam, The Netherlands
Experiment: Anti-thrombin assay: rate of hydrolysis of chromogenic substrate S-2238 by thrombin
Assay type: biochemical
Conditions: TNP buffer pH 7.4, 37° C., substrate S-2238, absorbance at 405 nm; concentration causing 50% inhibition of the maximum absorbance of the blank
Protocol: Thrombin (Factor IIa) is a factor in the coagulation cascade.
The anti-thrombin activity of compounds of the present invention was assessed by measuring spectrophotometrically the rate of hydrolysis of the chromogenic substrate s-2238 exterted by thrombin. This assay for anti-thrombin activity in a buffer system was used to assess the IC50-value of a test compound.
Test medium: Tromethamine-NaCl-polyethylene glycol 6000 (TNP) buffer. Reference compound: I2581 (Kabi) Vehicle:TNP buffer. Solubilisation can be assisted with dimethylsulphoxide, methanol, ethanol, acetonitrile or tert.-butyl alcohol which are without adverse effects in concentrations up to 2.5% in the final reaction mixture.
Technique Reagents*: 1. Tromethamine-NaCl (TN) buffer. Composition of the buffer: Tromethamine(Tris) 6.057 g (50 mmol), NaCl 5.844 g (100 mmol), water to 1 l. The pH of the solution is adjusted to 7.4 at 37° C. with HCl (10 mmol·l^−1). 2. TNP buffer: Polyethylene glycol 6000 is dissolved in TN buffer to give a concentration of 3 g·l^−1. 3. S-2238 solution: One vial S-2238 (25 mg; Kabi Diagnostica, Sweden) is dissolved in 20 ml TN buffer to give a concentration of 1.25 mg·ml^−1 (2 mmol·l^−1). 4. Thrombin solution: Human thrombin (16 000 nKat·vial^−1; Centraal Laboratorium voor Bloedtransfusie, Amsterdam, The Netherlands) is dissolved in TNP buffer to give a stock solution of 835 nKat·ml^−1. Immediately before use this solution is diluted with TNP buffer to give a concentration of 3.34 nKat·ml^−1.
* All ingredients used are of analytical grade
For aqueous solutions ultrapure water (Milli-Q quality) is used.
Preparation of Test and Reference Compound Solutions
The test and reference compounds are dissolved in Milli-Q water to give stock concentrations of 10^−2 mol·l^−1. Each concentration is stepwise diluted with the vehicle to give concentrations of 10^−3, 10^−4 and 10^−5 mol·l^−1. […]
At room temperature 0.075 ml and 0.025 ml test compound or reference compound solutions or vehicle are alternately pipetted into the wells of a microtiter plate and these solutions are diluted with 0.115 ml and 0.0165 ml TNP buffer, respectively. […] Starting after 1 min of incubation, the absorbance of each sample at 405 nm is measured every 2 min. for a period of 90 min. using a kinetic microtiter plate reader (Twinreader plus, Flow Laboratories).
All data are collected in an IBM personal computer using LOTUS-MEASURE. For each compound concentration (expressed in mol·l^−1 reaction mixture) and for the blank the absorbance is plotted versus the reaction time in min.
Evaluation of responses: For each final concentration the maximum absorbance was calculated from the assay plot. […]

Row | Structure (SMILES) | IC50 [µM]
1 | NCCCCC(NC(=O)CN(C(=O)C(N)Cc1ccccc1)C1CCCC1)C(=O)c1nccs1 [2(e), H—D-Phe-(N-cyclopentyl)-Gly-Lys-(2-thiazolyl)] | 4.5
2 | NCCCCC(NC(=O)CN(C(=O)CCc1ccccc1)C1CCCC1)C(=O)C(=O)O (stereo not shown) [4(b), 3-Phenylpropionyl-(N-cyclopentyl)-Gly-LysΨ[COCO]—OH] | 4.34
3 | NCCCC[C@H](NC(=O)[C@@H]1CCCN1C(=O)[C@@H](Cc1ccc(F)cc1)NCC(=O)O)C(=O)c1nccs1 [Example 39, HOOC—CH2—D-p-F-Phe-Pro-Lys-(2-thiazolyl)] | 19
4 | NCCCCC(NC(=O)CN1CCCCC(NS(=O)(=O)Cc2ccccc2)C1=O)C(=O)C(=O)O (stereo not shown) [Example 41, BzlSO2-norLeu(cyclo)Gly-LysΨ[COCO]—OH] | 0.135
